Measurements reported in patent US20230285570A1, “THERAPEUTICALLY USEFUL CURE-PRO MOLECULES FOR E3 LIGASE MEDIATED DEGRADATION OF PROTEINS, AND METHODS OF MAKING AND USING THEM” (CORNELL UNIVERSITY, priority 2020, published 2023).
“Also recorded” adds a separate entry of the source. Each block holds one compound with its values, some of them ahead of it.

How the values were obtained:
Format in all cases: cell-based
BRD4 [1] = target: T1, BRD4 (Homo sapiens, UniProt O60885); assay: CURE-PRO-mediated BRD4 degradation in MCF7 cells, WES (ProteinSimple); set-up: endogenous in cells
Protocol: (§1) WES Simple analysis was performed on WES system (ProteinSimple-Biotechne) according to the manufacturer's instructions. Total protein concentrations of cell lysates were determined by the Pierce BCA kit (Thermo Fisher). 3 μL of 0.3 μg/μL of the protein lysate was loaded onto a 12- to 230-kDa WES assay plate (ProteinSimple) where 300 nL sample was withdrawn through a capillary, subjected to electrophoretic separation of proteins by size, and followed by the simultaneous, HRP-based detection of proteins using the Anti-Rabbit Detection Module (Proteinsimple: #DM-001). The electropherograms were checked then the automatic peak detection was manually corrected if it was required.
MCF7 cells (3×10^6) were treated for 4-24 hours continually (FIG. 72), or treated for 4 h, washed and incubated for a further 4-24 h with the compounds solubilized in DMSO. Compounds were added at 10 μM each. Cells were washed, lysed, and clarified by centrifugation. The total protein concentration was quantified by the BCA method (ThermoFisher Sciences). Standardized protein samples were electrophoresed and imaged as described in the WES Proteinsimple section above. FIG. 69 depicts the CURE-PRO-mediated BRD4 degradation for the BRD-E50 monomer, and VHL ligand, 8305.
MCF7 cells (3×10^6) were treated for 24 hours with the compounds solubilized in DMSO. CURE-PRO monomers were added at 10 μM each and the proteasomal inhibitors at 1 μM. Standardized protein samples were electrophoresed and imaged as described in the WES Proteinsimple section above. FIGS. 73 and 75 depicts the dependence of the proteasome for CURE-PRO-mediated BRD4 degradation.
MCF7 cells (3×10^6) were treated for 24 hours with the compounds solubilized in DMSO. CURE-PRO monomers were added at 10 μM. FIG. 74 depicts the CURE-PRO-mediated BRD4 degradation for the BRD-E50 monomer, and VHL ligand, 8305 combined in a 1:1 ratio after 24 h.

BRD4 [2] = target: T1, BRD4; assay: Summary of BRD4 degradation by CURE-PRO pairs, estimated from Western Blot or WES; set-up: endogenous in cells
Procedure, shortened: (§2)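 Namalwa, Ramos, HeLa, MCF7, HT29 or HCT116 cells treated 24 h with compounds in DMSO; RIPA lysates analysed by Western blot (ECL) or capillary WES immunodetection. Check mark denotes 30% to 70% or higher protein degradation.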

BRD4 [3] = target: T1, BRD4; assay: CURE-PRO-mediated BRD4 degradation in HeLa cells, WES capillary electrophoresis (ProteinSimple); set-up: endogenous in cells; host or cells: HeLa; settings: co-dosed with CRBN ligand 8047, HeLa, 24 h, 100 nM-10 μM each
Protocol: All cell lines were purchased from ATCC or DSMZ and grown at 37° C. with 5% CO2. Human HeLa cells were cultured in complete growth medium (Dulbecco's modified Eagle's medium (DMEM) supplemented with 10% FBS); MCF7 cells were cultured in complete growth medium (Dulbecco's modified Eagle's medium (DMEM) supplemented with 10% FBS and 0.01 mg/ml human recombinant insulin (Sigma Aldrich); Namalwa and Ramos cells were cultured in complete growth medium (RPMI 1640 medium supplemented with 10% FBS); HCT116 and HT29 cells were cultured in complete growth medium (McCoy's 5a Medium supplemented with 10% FBS). For cellular degradation of BRD4 studies cells were seeded in a 12-well plate at 70-80% confluency, allowed to attach overnight, and incubated with the indicated compounds for the indicated time. When indicated, a 15-minute pretreatment with 10 μM pomalidomide, 10 μM VHL298, 10 μM Nutlin3a, 1 μM MG-132 or 1 μM Carfilzomib was performed before the addition of CURE-PROs. For washout studies, after CURE-PRO treatment, media was aspirated and incubated with complete medium for the indicated time before lysis.
as §1
HeLa cells (2.5×10^6) were treated for 4-24 hours with the compounds solubilized in DMSO. After 4 hours, indicated points were washed and cells were left in full growth media. Compounds were added at 10 μM each. Standardized protein samples were electrophoresed and imaged as described in the WES ProteinSimple section above. FIGS. 44 and 45 depict the time-dependence of CURE-PRO-mediated BRD4 degradation with the BRD-E52 ligand (FIG. 44) and BRD-E72 ligand (FIG. 45), both JQ1 derivatives comprising of boronic acid linkers, and the CRBN binding ligands (8046, 8047, and 8066), pomalidomide derivatives comprising diol linkers.
HeLa cells (2.5×10^6) were treated for 24 hours with the compounds solubilized in DMSO. Compounds were added at 100 nM-10 μM each. Standardized protein samples were electrophoresed and imaged as described in the WES ProteinSimple section above. FIG. 46 depicts the concentration-dependence of CURE-PRO-mediated BRD4 degradation and the requirement for monomer dimerization.

MV-4-11 cells = assay: CellTiter-Glo cell viability, MV-4-11 cells
Protocol: CellTiter-Glo® 2.0 Cell Viability Assay (Promega) was carried out following the manufacturer's recommendations. Cells were seeded at a density of 1000 cells/well in a white 96 well plates (Corning, #3917) in a total volume of 100 μl with respective monomers, combinations of BRD ligands together with E3 ligase ligands or vehicle control treatment. After a 72 h incubation, 100 ul of the CellTiter-Glo® substrate was added per well and luminescence was read on a Spectramax M5 (Molecular Devices). Dose-response curves were generated using Graphpad Prism software.
MV-4-11 cells (5×10^4) were treated for 24 hours with the sample compounds solubilized in DMSO. The compounds were added at 1 nM-100 μM each. Cellular viability was determined using the CellTiter-Glo® Luminescent Cell Viability Assay (Promega) described above. FIGS. 19-22 depict the CURE-PRO-mediated loss of cellular viability for BRD monomers (JQ1 derivatives comprising of catechol linkers), and CRBN ligand, 8049 (pomalidomide derivatives comprising boronic acid linkers) combined in a 1:1 ratio.
MV-4-11 cells (1×10^4) were treated for 72 hours with the compounds solubilized in DMSO. Compounds were added at 10 nM-100 μM each. Cellular viability was determined using the CellTiter-Glo® Luminescent Cell Viability Assay (Promega) described above. FIGS. 47-54 depict the CURE-PRO-mediated loss of cellular viability for BRD monomers (JQ1 derivatives comprising of boronic acid linkers), and CRBN ligands, 8046, 8047 and 8066 (pomalidomide derivatives comprising diol linkers) combined in a 1:1 ratio.

BRD4 [4] = target: T1, BRD4; assay: CURE-PRO-mediated BRD4 degradation in HeLa cells, Western blot; set-up: endogenous in cells; host or cells: HeLa; settings: 24 h
Procedure, shortened: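 HeLa cells (2.5×10^6) treated 24 h with DMSO-solubilized compounds, degrader pairs combined 1:1, at 1 nM-1 μM, 1-10 μM, 10 μM or 10 and 100 μM each depending on series. RIPA lysates (10-20 μg protein) run on SDS-PAGE and immunoblotted for BRD4 with ECL detection.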

c-MYC [5] = target: T2, c-MYC (Homo sapiens, UniProt P01106); assay: CURE-PRO-mediated c-MYC degradation in MCF7 cells, WES (ProteinSimple); set-up: endogenous in cells
Protocol: as §1
Compounds were added at 1 μM-10 μM each. Standardized protein samples were electrophoresed and imaged as detected on a WES capillary electrophoresis instrument (Proteinsimple), as described above. c-MYC monomers, MYC-N5 (FIG. 94) and MYC-N2 (FIG. 95) (10058-F4 derivatives comprising diol linkers), and VHL ligands, 8297 and 8298 (VH-298 derivatives comprising boronic acid linkers) were combined in a 1:1 ratio.

c-MYC [6] = target: T2, c-MYC; assay: Summary of C-MYC degradation by CURE-PRO pairs, estimated from Western Blot or WES; set-up: endogenous in cells; host or cells: HT29
Procedure, shortened: as §2

[7] = 1:1 with VHL ligand 8297, MCF7, 24 h, 1 μM-10 μM each
[8] = 1:1 with VHL ligand 8298, MCF7, 24 h, 1 μM-10 μM each
[9] = c-MYC monomer alone, MCF7, 24 h, 1 μM-10 μM

T2 sequence (P01106 whole entry): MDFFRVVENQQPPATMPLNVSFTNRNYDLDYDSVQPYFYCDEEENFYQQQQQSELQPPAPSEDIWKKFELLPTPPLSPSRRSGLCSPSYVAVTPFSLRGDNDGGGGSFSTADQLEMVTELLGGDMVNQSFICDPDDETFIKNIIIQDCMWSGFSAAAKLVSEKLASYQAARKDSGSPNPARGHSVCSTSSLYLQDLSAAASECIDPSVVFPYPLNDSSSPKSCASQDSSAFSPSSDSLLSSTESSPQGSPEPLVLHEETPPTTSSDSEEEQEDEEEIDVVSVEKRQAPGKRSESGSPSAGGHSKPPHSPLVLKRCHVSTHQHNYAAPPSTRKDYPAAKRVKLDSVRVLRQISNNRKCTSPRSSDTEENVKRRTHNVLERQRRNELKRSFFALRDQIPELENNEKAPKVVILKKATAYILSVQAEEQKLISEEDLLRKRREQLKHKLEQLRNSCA

Compound: COc1ccc2c(c1)C(c1ccc(Cl)cc1)=N[C@@H](CC(=O)NCCNC(=O)c1cccc(B(O)O)c1)c1nnc(C)n1-2 [BRD-E2]
- BRD4 degradation with proteasome inhibitors (BRD4 [1]; 1:1 with 8305 at 10 μM, pre-incubation with MG-132 and Carfilzomib 1 μM, MCF7): inhibited by the pre-incubation with MG-132 and Carfilzomib; also recorded: inhibited with the proteasome inhibitors, MG-132 and Carfilzomib
- BRD4 degradation (BRD4 [1]; 1:1 with VHL ligand 8305, MCF7, 10 μM each, 4-24 h): caused BRD4 degradation; also recorded: marked BRD4 degradation
- Degradation of BRD4, combination with VHL ligand 8305 (BRD4 [2]; Table 3, aryl-boronic acid BRD4 ligand + 8305): √ (A black check mark indicates efficacy of 30% to 70% or higher protein degradation)

Compound: CCNC(=O)C[C@@H]1N=C(c2ccc(Sc3ccccc3)cc2)c2cc(OC)ccc2-n2c(C)nnc21 [BRD-E52C, N-ethyl-2-((4S)-8-methoxy-1-methyl-6-(4-(phenylthio)phenyl)-4H-benzo[f][1,2,4]triazolo[4,3-a][1,4]diazepin-4-yl)acetamide]
- concentration-dependent BRD4 degradation (BRD4 [3]): failed to induce degradation even at 10 μM

Compound: CCNC(=O)C[C@@H]1N=C(c2ccc(Cl)cc2)c2cc(Sc3cccc(B(O)O)c3)ccc2-n2c(C)nnc21 [BRD-E76]
- loss of cellular viability (toxicity) versus monomers alone (MV-4-11 cells; cotreated 1:1 with each of CRBN ligands 8046, 8047 and 8066, MV-4-11, 72 h, 10 nM-100 μM): reduced viability; also recorded: increased toxicity
- Degradation of BRD4, combination with CRBN ligand 8046 (BRD4 [2]; Table 1, aryl-boronic acid BRD4 ligand + 8046): √ (A black check mark indicates efficacy of 30% to 70% or higher protein degradation)
- BRD4 degradation (BRD4 [4]; co-treated 1:1 with CRBN ligand 8046, HeLa, 10 μM each): causes degradation of BRD4
- BRD4 degradation (BRD4 [4]; co-treated 1:1 with CRBN ligand 8047, HeLa, 10 μM each): causes degradation of BRD4

Compound: COc1ccc2c(c1)C(c1ccc(Cl)cc1)=N[C@@H](CC(=O)NCCc1ccc(O)c(O)c1)c1nnc(C)n1-2 [BRD-N10, (S)-2-(6-(4-chlorophenyl)-8-methoxy-1-methyl-4H-benzo[f][1,2,4]triazolo[4,3-a][1,4]diazepin-4-yl)-N-(3,4-dihydroxyphenethyl)acetamide]
- loss of cellular viability (toxicity) (MV-4-11 cells; co-dosed 1:1 with CRBN ligand 8049, MV-4-11, 24 h, 1 nM-100 μM each): concentration-dependent loss in cellular viability; also recorded: increased toxicity
- Degradation of BRD4, combination with CRBN ligand 8048 (BRD4 [2]; Table 4, aromatic 1,2-diol BRD4 ligand + 8048): √ (A black check mark indicates efficacy of 30% to 70% or higher protein degradation)
- Degradation of BRD4, combination with CRBN ligand 8049 (BRD4 [2]; Table 4, aromatic 1,2-diol BRD4 ligand + 8049): √ (A black check mark indicates efficacy of 30% to 70% or higher protein degradation)
- Degradation of BRD4, combination with MDM2 ligand 8310 (BRD4 [2]; Table 5, aromatic 1,2-diol BRD4 ligand + 8310): √ (A black check mark indicates efficacy of 30% to 70% or higher protein degradation)
- BRD4 degradation (BRD4 [4]; BRD4 monomer alone, HeLa, 1-10 μM): there is no degradation of BRD4
- BRD4 degradation (BRD4 [4]; co-treated 1:1 with CRBN ligand 8048, HeLa, 1-10 μM each): causes degradation of BRD4; also recorded: capable of degrading BRD4

- c-MYC degradation (c-MYC [5]; [8]): no loss of c-MYC protein was observed
- c-MYC degradation (c-MYC [5]; [9]): no loss of c-MYC protein was observed
Compound: CCc1ccc(/C=C2\SC(=O)N(Cc3cccc(O)c3O)C2=O)cc1 [MYC-N2]
- c-MYC degradation (c-MYC [5]; [7]): Degradation is observed; also recorded: caused degradation of c-MYC
- Degradation of C-MYC, combination with CRBN ligand 8048 (c-MYC [6]; Table 10, aromatic 1,2-diol MYC ligand + 8048): √ (A black check mark indicates efficacy of 30% to 70% or higher protein degradation)

- c-MYC degradation (c-MYC [5]; [7]): no loss of c-MYC protein was observed
- c-MYC degradation (c-MYC [5]; [9]): no loss of c-MYC protein was observed
Compound: CCc1ccc(/C=C2\SC(=O)N(CCCc3ccc(O)c(O)c3)C2=O)cc1 [MYC-N5]
- c-MYC degradation (c-MYC [5]; [8]): Degradation is observed; also recorded: caused degradation of c-MYC
- Degradation of C-MYC, combination with CRBN ligand 8049 (c-MYC [6]; Table 10, aromatic 1,2-diol MYC ligand + 8049): √ (A black check mark indicates efficacy of 30% to 70% or higher protein degradation)
